According to ChEMBL document CHEMBL3098120, “Synthesis and analysis of activity of a potential anti-melanoma prodrug with a hydrazine linker” (Eur J Med Chem, 2014):
The source made the active and inactive calls. The rule behind the calls is not given here.

Assays:
B16-F10 [1] = test: Antitumor activity against mouse B16F10 cells […] in C57BL/6 mouse assessed as reduction of tumor size at 100 ug administered as intratumorally for 3 days; format: functional, cell-based
B16-F10 [2] = test: Cytotoxicity against mouse B16F10 cells at 250 uM after 24 to 48 hrs by MTT assay; format: functional, cell-based
[3] = Cytotoxicity against mouse HECa10 cells at 250 uM after 24 to 48 hrs by MTT assay; format: cell-based
[4] = Prodrug activation mediated by mushroom tyrosinase assessed as 4-[bis-(2-chloroethyl) amino]benzoic cid formation up to 120 mins by TLC, HPLC or MS analysis; settings: agaricus bisporus, 2 h
NIH3T3 = test: Cytotoxicity against mouse NIH/3T3 cells at 250 uM after 24 to 48 hrs by MTT assay; format: cell-based; settings: nih3t3, 250 µM
[5] = Prodrug activation mediated by mushroom tyrosinase assessed as 5,6-dihydroxy-1H-indazol-1-yl 4-[bis-(2-chloroethyl)amino]benzoate formation up to 120 mins by UV-Vis spectroscopy; settings: agaricus bisporus, 2 h
[6] = Prodrug activation mediated by mushroom tyrosinase assessed as N-{4-[bis-(2-chloroethyl)amino]benzoyl}-N''-(4-hydroxybenzylidene)hydrazine formation up to 120 mins by TLC, HPLC or MS analysis; settings: agaricus bisporus, 2 h

| Compound | Activity (B16-F10 [1]) | Activity (B16-F10 [2]) | Activity [3] | Drug metabolism [4] | Activity (NIH3T3) | Drug metabolism [5] | Drug metabolism [6] |
| --- | --- | --- | --- | --- | --- | --- | --- |
| N[C@@H](Cc1ccc(N(CCCl)CCCl)cc1)C(=O)O | Active | – | – | – | – | – | – |
| O=C(NNCc1ccc(O)cc1)c1ccc(N(CCCl)CCCl)cc1 | Active | Active | Toxic | Not Active | Toxic | Active | Active |
